The record followed here is patent US20200206157A1, “COMPOSITION FOR USE IN THE PREVENTION AND TREATMENT OF PATHOLOGIES OF THE CARDIOVASCULAR APPARATUS” (PHARMANUTRA S.P.A., priority 2017, published 2020).

In assay [1] the test system is vascular smooth muscle cells (VSMCs). Kind of assay: Vascular calcification induced by Pi 5 mM in VSMCs, extracellular calcium deposition on day 7. In kind it is cell-based. Conditions: rat VSMCs; for calcification inhibition: compared with 5 mM Pi in the same solvent; for effect of the individual compounds on the calcification (dose-response curves): Pi 5 mM. On the procedure:
The experimental model consists of vascular smooth muscle cells (VSMCs) removed from the aorta of a rat (primary cells) and stimulated for 7 days with Na3PO4 (Pi) 5 mM to induce them to […]. […] On day 7, the effect of the treatment on the extracellular calcium deposition was analyzed both by a qualitative histological method (staining of calcium deposits by Alizarin Red Staining), and by a quantitative method, by measuring the amount of […] calcium by a spectrophotometric technique (FIG. 1). Each type of experiment was repeated at least 3 times and each condition was tested at least three times within every single experiment.

In assay [2] the test system is human aortic cell cultures. Kind of assay: Calcification induced by inorganic phosphate (Pi, 2 mM) in human aortic cell cultures, Alizarin Red Staining quantification. In kind it is cell-based. To be noted: products at 0.03%; for % VAR vs CTR+: average % variation of ARS vs positive control (Pi 2 mM only); for % VAR vs CTR−: average % variation of ARS vs untreated negative control; for % VAR vs CTR− / ARS mM average: Pi 2 mM; for ARS mM average: human aortic cells, 7 days, ARS quantity proportional to calcium content. On the procedure:
(II) Similarly to what has been stated for the in vitro (I) study, the efficacy was tested of the composition according to the present invention comprising sucrosomial iron pyrophosphate (SRM) (Sucrosomiale®; Sucrosomial®), vitamin K2 menaquinone-7 (MK-7) and magnesium carbonate (MC) (composition called TRIO in Table 1 and FIG. 10) on the slowing of the progression of the vascular calcification induced by high levels of sodium phosphate (Pi) in a vascular cell culture and compared with the efficacy of the single components of the TRIO composition.
In particular, to execute the efficacy test, human aortic cell cultures were treated for 7 days with inorganic phosphate (Pi, 2 mM), a known calcifying agent, to induce mineralization of the cells, and with the products subjected to a concentration test 0.03% (% g of compound under examination/solution volume) and subsequently treated with the compound compositions under examination. At the end of the experimental treatment, the calcium content was quantified by a colorimetric assay, i.e. staining of the calcium deposits by Alizarin Red Staining (ARS).
The experimental design specified: untreated cell cultures (negative control CTR−), cell cultures (positive control CTR+) treated only with the calcifying agent (Pi) and cell cultures in which a calcification event was induced experimentally by the calcifying agent (Pi) and subsequently treated with the compositions/compounds under examination (0.03% concentrations) such as TRIO composition, only sucrosomial iron pyrophosphate (SRM) (Sucrosomiale®; Sucrosomial®), only vitamin K2 menaquinone-7 (MK-7) and only magnesium carbonate (MC).
The Alizarin Red Staining S (ARS) is an anthraquinone staining solution that is widely used to evaluate calcium deposits in cell cultures. Alizarin Red Staining (ARS) is versatile because the dye can be easily extracted from the coloured single layer of the cells and can be promptly dosed. The ARS quantification assay provides a sensitive tool for partial quantification of calcium in a cell matrix. Mineralization is assessed by extracting the low pH calcified mineral, neutralization with ammonia hydroxide and 405 nm colorimetric detection.
In the present study, the cells subjected to the different aforementioned treatments were fixed for ARS and the deposition of mineral was quantified by a commercially available colorimetric kit. For this purpose, a calibration curve was plotted with known and increasing ARS concentrations.
The results are set out in Table 1 and FIG. 10 as an ARS quantity that is directly proportional to the calcium content in the different experimental treatments (average value±st. dev.) and as average % variation from the controls. The data obtained from the different experimental groups were analyzed statistically and compared with T-test. The significant values in FIG. 10 compared with the positive control (p<0.05) are marked with an asterisk (*).

`CC(C)=CCC/C(C)=C/CC/C(C)=C/CC/C(C)=C/CC/C(C)=C/CC/C(C)=C/CC/C(C)=C/CC1=C(C)C(=O)c2ccccc2C1=O` [9_MK7, menaquinone-7]: the calcification inhibition in assay [1] (in ethanol) is 20%. The calcification inhibition in assay [1] (in ethyl acetate) was 15 to 30%. In assay [2], the “% VAR vs CTR+” value is 58.0%, the “% VAR vs CTR−” value was 34.7% and the “ARS mM average” value worked out at 0.100 mM.

Take `O=C([O-])[O-].[Mg+2]` [11_MC, magnesium carbonate]: in assay [2], the “% VAR vs CTR+” value is given as −49.6%, the “% VAR vs CTR−” value was 61.7% and the “ARS mM average” value is 0.120 mM.

For the molecule `[Cl-].[Cl-].[Mg+2]` [MgCl2, magnesium chloride], the “effect of the individual compounds on the calcification (dose-response curves)” value in assay [1] is on record as “powerful calcification inhibitors, with a dose-dependent protective effect”.

Consider iron (III) pyrophosphate [Fe4(P2O7)3], for which the “effect of the individual compounds on the calcification (dose-response curves)” value in assay [1] is “powerful calcification inhibitors, with a dose-dependent protective effect”.
